Assay results as given in ChEMBL document CHEMBL1148954, “Two new cytotoxic tetracyclic tetraterpenoids from the soft coral Sarcophyton tortuosum” (J Nat Prod, 2004).
Converted amounts (≈) assume the structure as drawn.

Legend:
[1] = Cytotoxicity against human CNE2 cells by MTT assay; assay type: functional, cell-based; settings: CNE-2
P388 = assay: Cytotoxicity against mouse P388 cells by MTT assay; assay type: functional, cell-based

| Structure (SMILES) | IC50 [1] | IC50 (P388) |
| --- | --- | --- |
| COC(=O)[C@@]12CC(=O)[C@@H](C(C)C)CC(=O)[C@@H](C)CCC[C@@H](C)CC(=O)[C@@H]1CC(C)=C1[C@H]2/C=C(\C)CC[C@H]2O[C@@H](CC=C2C)[C@](C)(O)C[C@@H]1O [METHYL TORTUOATE A] | 22.7 µg/mL (≈ 33.2 µM) | 3.5 µg/mL (≈ 5.12 µM) |
| COC(=O)[C@@]12CC(=O)[C@@H](C(C)C)CC(=O)[C@@H](C)CCC[C@@H](C)CC(=O)[C@@H]1CC(C)=C1[C@@H]3C[C@@](C)(O)[C@H](CC[C@@H](C)C(=O)CC/C(C)=C/[C@H]12)O3 [METHYL TORTUOATE B] | 24.7 µg/mL (≈ 36.2 µM) | 5 µg/mL (≈ 7.32 µM) |
